These results are taken from ChEMBL document CHEMBL3808326, “Design and synthesis of novel hydroxypyridinone derivatives as potential tyrosinase inhibitors” (Bioorg Med Chem Lett, 2016).

The source made the active and inactive calls. No cut-off for these calls is given here.

For series [1], the target named is T1, Tyrosinase (Agaricus bisporus, UniProt O42713).
T1 sequence (O42713 whole entry): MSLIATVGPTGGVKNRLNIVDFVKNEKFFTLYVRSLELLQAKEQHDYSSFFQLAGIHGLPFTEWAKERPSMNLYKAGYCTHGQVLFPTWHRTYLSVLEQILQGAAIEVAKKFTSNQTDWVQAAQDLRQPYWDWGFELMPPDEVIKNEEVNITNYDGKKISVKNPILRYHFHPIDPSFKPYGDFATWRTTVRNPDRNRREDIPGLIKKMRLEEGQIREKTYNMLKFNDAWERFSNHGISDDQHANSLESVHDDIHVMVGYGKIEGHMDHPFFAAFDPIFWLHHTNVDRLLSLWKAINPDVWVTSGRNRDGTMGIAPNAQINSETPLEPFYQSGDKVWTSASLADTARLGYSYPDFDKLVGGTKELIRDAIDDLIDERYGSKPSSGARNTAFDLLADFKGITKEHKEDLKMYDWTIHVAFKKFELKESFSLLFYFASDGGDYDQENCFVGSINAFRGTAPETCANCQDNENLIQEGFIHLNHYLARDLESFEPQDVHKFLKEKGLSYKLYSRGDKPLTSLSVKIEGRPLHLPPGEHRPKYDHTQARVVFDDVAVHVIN
Nature of the series: Inhibition of monophenolase activity of mushroom tyrosinase using L-tyrosine as substrate incubated for 10 mins by UV-Visible spectrophotometric analysis.

Series [2] has as its target T1, Tyrosinase. The series can be described thus: Inhibition of diphenolase activity of mushroom tyrosinase using L-DOPA as substrate incubated for 10 mins by UV-Visible spectrophotometric analysis.
The target of series [3] is T2, Tyrosinase (Agaricus bisporus) (UniProt O42713).
T2 sequence (whole entry): T1 sequence (O42713 whole entry)
Nature of the series: Reversible inhibition of diphenolase activity of mushroom tyrosinase using L-DOPA as substrate at 4.17 to 33.33 uM incubated for 10 mins by UV-Visible spectrophotometric analysis.

Series [4] deals with T1, Tyrosinase. The series can be described thus: Inhibition of diphenolase activity of mushroom tyrosinase using L-DOPA as substrate assessed as enzyme-inhibitor complex incubated for 10 mins by Lineweaver-Burk plot method.
The target in series [5] is T1, Tyrosinase. The series can be described thus: Inhibition of diphenolase activity of mushroom tyrosinase using L-DOPA as substrate assessed as enzyme-substrate-inhibitor complex incubated for 10 mins by Lineweaver-Burk plot method.
Series [6] addresses T2, Tyrosinase (Agaricus bisporus). The series can be described thus: Competitive-uncompetitive-mixed type inhibition of diphenolase activity of mushroom tyrosinase using L-DOPA as substrate incubated for 10 mins by Lineweaver-Burk plot method.
A short description of series [7]: Copper reducing activity in 0.4 mM cupric sulfate solution assessed as cuprous ion formation up to 0.15 mM after 10 mins by bathocuproinedisulfonic acid dye based spectrophotometric analysis. The series is classed as physicochemical.
Series [8] in a line: Copper chelating activity in pH 5 copper sulfate solution at 2.857 mM after 10 mins by tetramethylmurexide dye based assay relative to control. The series is classed as physicochemical. The following applies: pH 5, 10 min, 2857 µM.
Series [9] is described as follows: Copper chelating activity in pH 7.4 copper sulfate solution at 2.857 mM after 10 mins by tetramethylmurexide dye based assay relative to control. The class given is physicochemical. The following applies: pH 7.4, 10 min, 2857 µM.

As for `CC(C)C[C@H](NC(=O)OCc1ccccc1)C(=O)OCc1cc(=O)c(O)c[nH]1`, inhibition on Tyrosinase [1] was half-maximal at 28.7 µM (IC50).
Still for that read-out and setting: next, `CC(C)[C@H](NC(=O)[C@@H](N)Cc1ccccc1)C(=O)NCc1cc(=O)c(O)c[nH]1`: 14.3 µM; `CC(C)[C@H](NC(=O)OCc1ccccc1)C(=O)OCc1cc(=O)c(O)c[nH]1`: 12.5 µM.
On to `O=C(N[C@@H](Cc1ccccc1)C(=O)OCc1cc(=O)c(O)c[nH]1)OCc1ccccc1`, for which the IC50 (commonly the concentration needed to halve the response being measured) against Tyrosinase [1] came out at 1.95 µM; on Tyrosinase [2], 8.97 µM. Also, the inhibition entry in [3] and in [6] was “Active” throughout. Besides, the Ki (commonly the equilibrium dissociation constant of an inhibitor or competing ligand from its target) came to 17.2 µM at Tyrosinase [4] and 22.1 µM at Tyrosinase [5]. Moreover, the Activity entry is recorded as “Active” in series [7], 97.52% in series [8] and 88.92% in series [9].
Turning to `CC[C@H](C)[C@H](NC(=O)OCc1ccccc1)C(=O)OCc1cc(=O)c(O)c[nH]1`, at Tyrosinase [1], the 50% inhibitory concentration (IC50) came out at 15.6 µM.
For the molecule `N[C@@H](Cc1ccccc1)C(=O)N[C@@H](Cc1ccccc1)C(=O)NCc1cc(=O)c(O)c[nH]1`, the IC50 at Tyrosinase [1] worked out at 2.79 µM; on Tyrosinase [2] it was 26.2 µM. Further, the inhibition result in series [3] and in [6] was “Active” each time. Also, the Ki came out at 34.4 µM at Tyrosinase [4] and 79 µM on Tyrosinase [5].
In the case of `C[C@H](NC(=O)OCc1ccccc1)C(=O)OCc1cc(=O)c(O)c[nH]1`, at Tyrosinase [1], 11.8 µM corresponded to half-maximal inhibition (IC50).
In the case of `CC(C)C[C@H](NC(=O)[C@@H](N)Cc1ccccc1)C(=O)NCc1cc(=O)c(O)c[nH]1`, the concentration for half-maximal inhibition (IC50) on Tyrosinase [1] was determined as 6.93 µM. This IC50 is about 1.7-fold lower than that of the molecule before.
